Data on 1 molecule can be found in ChEMBL document CHEMBL3526048, “In vitro metabolism of rivoglitazone, a novel peroxisome proliferator-activated receptor γ agonist, in rat, monkey, and human liver microsomes and freshly isolated hepatocytes” (Drug Metab Dispos, 2011).

Data set [1] is described as follows: Drug metabolism in rat hepatocytes assessed as formation of 5-(4-((6-hydroxy-1-methyl-1H-benzo[d]imidazol-2-yl)methoxy)benzyl)thiazolidine-2,4-dione at 30 uM after 3 hrs by radio-HPLC/LC-MS/MS analysis in presence of NADPH-generating system and NADPH-generating system/SAM. Type of data set: ADME, cell-based, Hepatocyte.
The nature of data set [2]: Drug metabolism in human hepatocytes assessed as formation of (2S,3S,4S,5R,6R)-6-((1-carboxy-2-(4-((6-methoxy-1-methyl-1H-benzo[d]imidazol-2-yl)methoxy)phenyl)ethylthio)carbonylamino)-3,4,5-trihydroxytetrahydro-2H-pyran-2-carboxylic acid at 30 uM after 3 hrs by radio-HPLC/LC-MS/MS analysis in presence of UDPGA and UDPGA/SAM. Type of data set: ADME, cell-based, Hepatocyte.

Data set [3] can be described thus: Drug metabolism in human hepatocytes assessed as formation of 3-(4-((6-methoxy-1-methyl-1H-benzo[d]imidazol-2-yl)methoxy)phenyl)-2-(methylthio)propanamide at 30 uM after 3 hrs by radio-HPLC/LC-MS/MS analysis in presence of NADPH-generating system/SAM. Type of data set: ADME, cell-based, Hepatocyte.
Data set [4] deals with Liver microsome. Nature of the data set: Drug metabolism in Sprague-Dawley rat liver microsomes assessed as formation of 2-((4-((2,4-dioxothiazolidin-5-yl)methyl)phenoxy)methyl)-1-methyl-1H-benzo[d]imidazol-6-yl hydrogen sulfate at 20 uM by radio-HPLC/LC-MS/MS analysis. The class given is ADME. (Microsomes from liver hold many membrane-bound enzymes, among them those of drug oxidation.)

A short description of data set [5]: Drug metabolism in human hepatocytes assessed as formation of 3-(4-((6-methoxy-1-methyl-1H-benzo[d]imidazol-2-yl)methoxy)phenyl)-2-(methylsulfinyl)propanamide at 30 uM after 3 hrs by radio-HPLC/LC-MS/MS analysis in presence of NADPH-generating system/SAM. The class given is ADME, cell-based, Hepatocyte.
Data set [6] addresses T1, Cytochrome P450 2C8 (Homo sapiens, UniProt P10632).
T1 sequence (P10632 whole entry): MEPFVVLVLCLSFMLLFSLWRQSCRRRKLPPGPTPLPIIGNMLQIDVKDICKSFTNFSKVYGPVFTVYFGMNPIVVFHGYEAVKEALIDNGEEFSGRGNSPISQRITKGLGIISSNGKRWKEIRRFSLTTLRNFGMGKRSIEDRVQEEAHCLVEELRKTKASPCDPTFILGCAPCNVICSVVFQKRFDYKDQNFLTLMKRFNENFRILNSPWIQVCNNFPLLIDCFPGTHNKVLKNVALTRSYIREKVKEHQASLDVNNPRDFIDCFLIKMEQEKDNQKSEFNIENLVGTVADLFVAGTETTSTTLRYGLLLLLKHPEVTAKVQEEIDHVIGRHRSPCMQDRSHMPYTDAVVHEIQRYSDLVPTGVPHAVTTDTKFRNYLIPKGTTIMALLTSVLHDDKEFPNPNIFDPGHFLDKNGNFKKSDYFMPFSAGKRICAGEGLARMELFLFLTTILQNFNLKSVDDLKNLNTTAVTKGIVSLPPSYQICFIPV
Nature of the data set: Activity of human CYP2C8 expressed in microsomes isolated from baculovirus infected insect cell assessed as enzyme-mediated 3-(4-((6-methoxy-1-methyl-1H-benzo[d]imidazol-2-yl)methoxy)phenyl)-2-(methylsulfinyl)propanamide formation at 20 uM after 2 hrs by radio-HPLC/LC-MS/MS analysis in presence of NADPH-generating system/SAM. The class given is ADME.

The target in data set [7] is T2, Cytochrome P450 1A2 (Homo sapiens, UniProt P05177).
T2 sequence (P05177 whole entry): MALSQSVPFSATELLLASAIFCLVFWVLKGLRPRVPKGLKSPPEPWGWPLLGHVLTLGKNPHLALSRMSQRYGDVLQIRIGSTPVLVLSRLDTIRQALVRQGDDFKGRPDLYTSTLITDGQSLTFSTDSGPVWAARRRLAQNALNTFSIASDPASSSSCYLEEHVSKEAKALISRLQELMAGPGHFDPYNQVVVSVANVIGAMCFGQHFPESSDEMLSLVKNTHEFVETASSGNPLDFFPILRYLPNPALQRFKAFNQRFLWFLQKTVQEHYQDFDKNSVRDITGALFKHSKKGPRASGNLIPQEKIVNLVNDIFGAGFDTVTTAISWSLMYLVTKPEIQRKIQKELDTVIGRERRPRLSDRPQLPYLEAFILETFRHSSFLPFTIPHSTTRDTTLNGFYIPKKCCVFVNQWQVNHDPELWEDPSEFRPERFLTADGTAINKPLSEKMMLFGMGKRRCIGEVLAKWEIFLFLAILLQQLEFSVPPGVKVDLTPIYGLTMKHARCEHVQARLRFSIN
Nature of the data set: Activity of human CYP1A2 expressed in microsomes isolated from baculovirus infected insect cell assessed as enzyme-mediated 3-(4-((6-methoxy-1-methyl-1H-benzo[d]imidazol-2-yl)methoxy)phenyl)-2-(methylthio)propanamide formation at 20 uM after 2 hrs by radio-HPLC/LC-MS/MS analysis in presence of NADPH-generating system/SAM. Type of data set: ADME.

The test system of data set [8] is Plasma. Nature of the data set: Drug metabolism in po dosed monkey plasma assessed as formation of 5-(4-((6-methoxy-1H-benzo[d]imidazol-2-yl)methoxy)benzyl)thiazolidine-2,4-dione. Conditions: rhesus monkey, in vivo. The class given is ADME, organism-based, Macaca mulatta.
In data set [9] the test system is Liver microsome. Nature of the data set: Drug metabolism in human liver microsomes assessed as formation of 2-amino-3-((1-carboxy-2-(4-((6-methoxy-1-methyl-1H-benzo[d]imidazol-2-yl)methoxy)phenyl)ethyl)disulfanyl)propanoic acid at 20 uM by radio-HPLC/LC-MS/MS analysis. The class given is ADME.
The test system of data set [10] is Liver microsome. Nature of the data set: Drug metabolism in Sprague-Dawley rat liver microsomes assessed as formation of 3-(4-((6-methoxy-1-methyl-1H-benzo[d]imidazol-2-yl)methoxy)phenyl)-2-(methylthio)propanamide at 20 uM after 2 hrs by radio-HPLC/LC-MS/MS analysis in presence of NADPH-generating system/SAM. The class given is ADME.
For data set [11], the target named is Cytochrome P450 2C9 (Homo sapiens, UniProt P11712). Nature of the data set: Activity of human CYP2C9 expressed in microsomes isolated from baculovirus infected insect cell assessed as enzyme-mediated (2S,3S,4S,5R,6R)-6-((1-carboxy-2-(4-((6-methoxy-1-methyl-1H-benzo[d]imidazol-2-yl)methoxy)phenyl)ethylthio)carbonylamino)-3,4,5-trihydroxytetrahydro-2H-pyran-2-carboxylic acid formation at 20 uM after 2 hrs by radio-HPLC/LC-MS/MS analysis in presence of NADPH-generating system/SAM. The class given is ADME.
Sequence of Cytochrome P450 2C9 (P11712 whole entry): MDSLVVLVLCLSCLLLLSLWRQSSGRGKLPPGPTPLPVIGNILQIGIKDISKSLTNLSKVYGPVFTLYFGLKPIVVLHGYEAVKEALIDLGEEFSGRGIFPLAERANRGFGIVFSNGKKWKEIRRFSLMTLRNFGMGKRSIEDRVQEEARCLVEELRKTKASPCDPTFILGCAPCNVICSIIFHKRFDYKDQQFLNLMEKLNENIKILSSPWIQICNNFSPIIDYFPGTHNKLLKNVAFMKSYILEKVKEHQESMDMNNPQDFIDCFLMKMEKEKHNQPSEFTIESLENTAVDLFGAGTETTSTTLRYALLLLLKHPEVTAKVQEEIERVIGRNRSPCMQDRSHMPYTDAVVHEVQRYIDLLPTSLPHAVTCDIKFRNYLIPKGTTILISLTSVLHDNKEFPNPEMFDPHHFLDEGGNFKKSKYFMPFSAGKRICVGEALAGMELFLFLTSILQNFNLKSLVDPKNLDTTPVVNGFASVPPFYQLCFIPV

SMILES strings stand for the structures.

In the case of `COc1ccc2nc(COc3ccc(C[14CH]4SC(=O)NC4=O)cc3)n(C)c2c1.Cl` (racemic), the Drug metabolism result in data set [1] is reported as “metabolite_detected”; in data set [2], “metabolite_detected”; in data set [3], “metabolite_detected”; in data set [4], “metabolite_not_detected”; in data set [5] it was “metabolite_detected”; in data set [6], “metabolite_not_detected”. Moreover, the Drug metabolism entry in data set [7] is “metabolite_not_detected”; in data set [8], “metabolite_detected”; in [9] it was “metabolite_not_detected”; in data set [10], “metabolite_detected”; in [11], “metabolite_not_detected”.
